Assay results published in US9675576B2, “Polyenolic zinc-binding agents (pezbins) actively promote inactivation of cancer stem cells and potentiate cytotoxic anti-tumor drug substances” (The Research Foundation for The State University of New York, priority 2012, dated 2017).

Experiments:
[1] = system: prostate CD133+ cells (PPT2 and PC3MM2); test: MTT cytotoxicity assay, results stated for prostate CD133+ cells without split by line; assay type: cell-based, human; settings: for concentration dependence of effect on prostate CD133+ cells: single agent
Method: (§1) The CSC-specific cytotoxic effects were studied in two different settings both of which are known to maintain/promote sternness phenotype: adherent to type I collagen cultures and 3D cultures of floating spheroids (Baretton, G. B. 1994; Miyoshi, Y. 2000; Koivisto, P. 1995). The CD133^high/CD44^high cells (1×10^3 cells/well) isolated either from PPT2 or PC3MM2 cell lines were seeded onto the type I collagen-coated 96-well plates, cultured in the MSCGM for 2 days, and the treatment was initiated upon 90% confluency. Paclitaxel, SBT-1214 and CMC2.24 were dissolved in sterile DMSO and then serially diluted in MSCGM. For testing the SBT-1214/CMC2.24 combination efficacy, the regular MSCGM was replaced with treatment medium containing SBT-1214 or Ptx at selected concentration range (from 10 nM to 10 μM) with 30 μM CMC2.24. Treatment medium was removed 24, 48 or 72 hr later, followed by return to the MSCGM. Cell death was analyzed on adherent type I collagen cell cultures with the MTT assay [MTT=3-(4,5-dimethylthiazol-2-yl)-2,5-diphenyltetrazolium bromide] as recommended by manufacturer (Invitrogen). Spheroids were cultured and treated on ULA plates.
The dose-response cytotoxicity of SBT-1214, CMC2.24/and their combination was evaluated by standard MTT assay (all of the in vitro experiments were repeated at least three times and each measurement for the MMT assay was performed in 4 repeats). The dose-response points were plotted as a percentage of the untreated control, the absorbance of which was considered as 100%. Data were expressed as means±SD for each drug concentration. The in vivo responses to drug treatment were evaluated as changes in tumor volume of drug-treated versus untreated control xenografts induced by particular type of cells. Data were expressed as means±SD for control and drug treated tumors. The statistical significance of differences was determined using Student's t-test. The parameters used were the two-tailed distribution and the paired test. P<0.05 was considered statistically significant.

[2] = system: CSC-relevant transcription factors in colon cancer HCT116 CD133+ and prostate xPT2 CD133+ cells; test: PCR array of stem cell-related transcription factors, colon and prostate CD133+ cells; assay type: cell-based, human; settings: CMC2.24 as stated in Example 2
Method: Stem cell-specific gene expression profiles were studied with the PCR Array assay (SABiosciences, CA) in accordance with the manufacturer's recommendations. Briefly, total RNA was isolated from different cell populations (cancer stem cells expressing high levels of the CD133 and CD44, or whole floating spheroids that are enriched with CSCs) using PARIS kit (Ambion). Up to 1 μg of total RNA was treated with DNase and cDNA was prepared using RT^2 First Strand kit. For each analysis, pairs of the test and control cDNA samples were mixed with RT^2 qPCR Master mix and distributed across the PCR array 96-well plates, each of which contained 84 stem cell-related probes and control housekeeping genes. After cycling with real-time PCR (Opticon MJ Research or ABI 7300, Applied Biosystems), obtained amplification data (fold-changes in Ct values of all the genes) was analyzed with SABiosciences software.

[3] = in vivo; cited from earlier work
[4] = system: PPT2 and PC3MM2 cell lines; test: FACS analysis of CD133 expression after drug treatment; assay type: cell-based, human; settings: CMC2.24 treatment, FIG. 11C
Source text: To ensure more reliable isolation of CSCs, cells were labeled with one or several markers conjugated with different fluorescent dyes, including anti-human CD133/2-APC (clone 293C3; Miltenyi Biotec, CA, USA); CD166-PE (clone 105902; R&D Systems, MN, USA); CD44-FITC (clone F10-44-2), CD44-PE (clone F10-44-2; Invitrogen/Biosources, USA); CD44v6-FITC (clone 2F10; R&D Systems, USA), EpCAM-FITC (Biosource, CA, USA), Pan-Keratin (C11)-Alexa Fluor® 488 (Cell Signaling) and all the isotype controls (Chemicon). Antibodies were diluted in buffer containing 5% BSA, 1 mM EDTA and 15-20% blocking reagent (Miltenyi Biotec) to inhibit unspecific binding to non-target cells. After 15 min incubation at 4° C., stained cells were sorted and analyzed with multiparametric flow cytometer BD FACSAria (Becton Dickinson, CA). Alternatively, dissociated cells were centrifuged at 950 g for 5 min at 4° C., rinsed with sterile MACS buffer (Miltenyi Biotec, CA) and labeled with CD133 Abs directly or indirectly conjugated with ferromagnetic beads (Miltenyi Biotec, CA) as recommended by manufacturer.
as §1, with “For testing the SBT-1214/CMC2.24 combination efficacy, the regular MSCGM was replaced with treatment medium containing SBT-1214 or Ptx at selected concentration range (from 10 nM to 10 μM) with 30 μM CMC2.24. Treatment medium was removed 24, 48 or 72 hr later, followed by return to the MSCGM.” left out, “Spheroids were cultured and treated on ULA plates.” left out

c-Myc, Sox-2 and Oct4 = test: Western blot of key transcription factors; assay type: cell-based, human
Method: (§2) Cells were lysed using Active Motif Nuclear Co-ip kit according to manufacturer's protocol. 20 μg of enriched nuclear and cytoplasmic extracts was subjected to electrophoresis in 10% polyacrylamide gel. The proteins were then transferred to a nitrocellulose membrane and developed with appropriate antibodies.

p53 and p21 = test: Western blot of pro-apoptotic proteins; assay type: cell-based, human; settings: CD133+ and bulk PPT2 cells, previously not expressed
Method: as §2

| SMILES | concentration dependence of effect on prostate CD133+ cells [1] | inhibition of CSC-relevant transcription factors [2] | systemic toxicity [3] | effect on cells, higher doses ([1]; 10-40 μM, 72 hr) | effect on cell proliferation, low concentrations ([1]; up to 10 μM, 72 hr) | ratios of cells with highest expression of CD133 [4] | key TF proteins (c-Myc, Sox-2 and Oct4; both nuclear and cytoplasmic fractions) | c-Myc and Sox2 expression (c-Myc, Sox-2 and Oct4; nuclear extracts of CD133+ and bulk PPT2 cells) | expression of p21 and p53 (p53 and p21) |
| --- | --- | --- | --- | --- | --- | --- | --- | --- | --- |
| COc1cc(/C=C/C(=O)CC(=O)/C=C/c2ccc(O)c(OC)c2)ccc1O [curcumin, diferuloylmethane] | biphasic effects | – | – | – | – | – | – | – | – |
| O=C(/C=C/c1ccc(O)cc1)C(C(=O)/C=C/c1ccc(O)cc1)C(=O)Nc1ccccc1 [CMC2.24] | biphasic effects | profound inhibition of the majority | no systemic toxicity | increasingly cytotoxic | stimulated cell proliferation | did not induce an increase | dramatic inhibition | moderate down-regulation | induced expression |
